From US12377098B2, “Compositions and methods for the treatment of alopecia” (Follea International, priority 2023, dated 2025)

Test system: scalp SULT1A1 enzyme
Conditions: oral, 20 subjects

## O=C([O-])O.[Na+] [sodium bicarbonate]
Dosages exceeding 1,000 mg q.d.
  subjects in whom the scalp SULT1A1 enzyme was induced: 18%
Dosages less than 500 mg q.d.
  induction of the scalp SULT1A1 enzyme: did induce
